# Experimental data from US8716284B2, “Adamantyl diamide derivatives and uses of same” (H. Lundbeck A/S, priority 2008, dated 2014).
# Molecular target: T1, rat metabotropic glutamate receptor 5 (mGluR5) (Rattus norvegicus, UniProt P31424)
# T1 construct: expressed in transfected cells; host or cells: HEK 293
# Experiment: Calcium mobilization assay (FLIPR) for negative or positive allosteric activity, HEK 293 cells
# Assay type: cell-based
# Conditions: HEK293, negative allosteric modulation, inhibition of EC80 glutamate response; read-out: FLIPR maximum inhibition
# Summary of the method: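 HEK 293 cells stably expressing rat mGluR5, Fluo-4 loaded in HEPES-buffered HBSS pH 7.4 with 0.1% BSA and probenecid. Compound added with EC20 (potentiation) or EC80 (inhibition) glutamate; fluorescence read over 3 min at room temperature. Basal-subtracted maximum fluorescence change fitted to Hill equation.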
# T1 sequence (P31424 21-1171 isoform P31424-2 limits assumed): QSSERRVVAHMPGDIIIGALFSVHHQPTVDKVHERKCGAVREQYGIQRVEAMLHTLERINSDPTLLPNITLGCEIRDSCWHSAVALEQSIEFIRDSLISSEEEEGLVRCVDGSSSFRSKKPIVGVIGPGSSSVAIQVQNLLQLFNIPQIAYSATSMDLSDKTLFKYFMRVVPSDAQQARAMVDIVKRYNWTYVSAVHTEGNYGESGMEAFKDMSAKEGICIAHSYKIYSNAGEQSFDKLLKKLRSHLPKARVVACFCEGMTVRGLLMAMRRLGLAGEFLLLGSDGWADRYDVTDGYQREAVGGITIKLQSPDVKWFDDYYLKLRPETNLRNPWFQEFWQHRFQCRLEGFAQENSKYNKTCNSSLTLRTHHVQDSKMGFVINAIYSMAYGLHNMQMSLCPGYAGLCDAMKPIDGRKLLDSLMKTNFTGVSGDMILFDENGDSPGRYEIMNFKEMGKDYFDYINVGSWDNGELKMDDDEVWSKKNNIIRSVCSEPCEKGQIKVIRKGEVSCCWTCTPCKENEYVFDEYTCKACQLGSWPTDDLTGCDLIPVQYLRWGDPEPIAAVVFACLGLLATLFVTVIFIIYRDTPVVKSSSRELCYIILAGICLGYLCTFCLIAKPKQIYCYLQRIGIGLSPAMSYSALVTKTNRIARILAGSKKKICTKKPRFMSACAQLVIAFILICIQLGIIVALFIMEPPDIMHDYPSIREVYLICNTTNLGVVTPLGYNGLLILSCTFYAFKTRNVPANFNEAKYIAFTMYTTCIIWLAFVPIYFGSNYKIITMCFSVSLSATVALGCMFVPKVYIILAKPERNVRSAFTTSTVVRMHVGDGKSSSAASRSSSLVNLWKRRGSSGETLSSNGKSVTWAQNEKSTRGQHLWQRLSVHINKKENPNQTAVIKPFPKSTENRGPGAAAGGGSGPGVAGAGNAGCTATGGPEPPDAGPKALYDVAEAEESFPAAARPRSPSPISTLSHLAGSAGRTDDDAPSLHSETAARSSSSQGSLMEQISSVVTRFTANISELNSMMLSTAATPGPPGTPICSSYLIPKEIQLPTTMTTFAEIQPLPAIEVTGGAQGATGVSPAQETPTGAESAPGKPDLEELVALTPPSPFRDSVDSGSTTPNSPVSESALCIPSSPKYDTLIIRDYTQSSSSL
row,SMILES,Emax [%]
1,"CN1CCN(c2cccc(C(=O)NC34CC5CC(CC(NC(=O)c6cccc(F)c6)(C5)C3)C4)n2)CC1 [Example 216, 6-(4-Methyl-piperazin-1-yl)-pyridine-2-carboxylic acid [3-(3-fluoro-benzoylamino)-adamantan-1-yl]-amide]",63 to 99
2,"COCCN(C)c1cccc(C(=O)NC23CC4CC(CC(NC(=O)c5cccc(C)n5)(C4)C2)C3)n1 [Example 207, 6-[(2-Methoxy-ethyl)-methyl-amino]-pyridine-2-carboxylic acid{3-[(6-methyl-pyridine-2-carbonyl)-amino]-adamantan-1-yl}-amide]",63 to 99
3,"O=C(NC12CC3CC(C1)CC(NC(=O)c1cccc(NCCCO)n1)(C3)C2)c1ccccn1 [Example 203, 6-(3-Hydroxy-propylamino)-pyridine-2-carboxylic acid {3-[(pyridine-2-carbonyl)-amino]-adamantan-1-yl}-amide]",63 to 99
4,"Cc1cncc(C(=O)NC23CC4CC(C2)CC(NC(=O)c2ncccc2C)(C4)C3)n1 [Example 168, 6-Methyl-pyrazine-2-carboxylic acid {3-[(3-methyl-pyridine-2-carbonyl)-amino]-adamantan-1-yl}-amide]",63 to 99
5,"Cn1ccc(C(=O)NC23CC4CC(CC(NC(=O)c5ccccn5)(C4)C2)C3)n1 [Example 76, Pyridine-2-carboxylic acid {3-[(1-methyl-1H-pyrazole-3-carbonyl)-amino]-adamantan-1-yl}-amide]",63 to 99
6,"CN(C)C1CCN(c2cccc(C(=O)NC34CC5CC(CC(NC(=O)c6cccc(F)c6)(C5)C3)C4)n2)C1 (stereo not shown) [Example 217, 6-(3-Dimethylamino-pyrrolidin-1-yl)-pyridine-2-carboxylic acid [3-(3-fluoro-benzoylamino)-adamantan-1-yl]-amide]",63 to 99
7,"Cc1cncc(C(=O)NC23CC4CC(C2)CC(NC(=O)c2cccc(C(F)(F)F)c2F)(C4)C3)n1 [Example 150, 6-Methyl-pyrazine-2-carboxylic acid [3-(2-fluoro-3-trifluoromethyl-benzoylamino)-adamantan-1-yl]-amide]",70 to 99
8,"Cc1cncc(C(=O)NC23CC4CC(C2)CC(NC(=O)c2cc(F)ccc2F)(C4)C3)n1 [Example 148, 6-Methyl-pyrazine-2-carboxylic acid [3-(2,5-difluoro-benzoylamino)-adamantan-1-yl]-amide]",70 to 99
9,"O=C(NC12CC3CC(C1)CC(NC(=O)c1ccccn1)(C3)C2)c1ccccc1 [Example 71, Pyridine-2-carboxylic acid (3-benzoylamino-adamantan-1-yl)-amide]",63 to 99
10,"CN(C)CCN(C)c1cccc(C(=O)NC23CC4CC(CC(NC(=O)c5ccccn5)(C4)C2)C3)n1 [Example 227, 6-[(2-Dimethylamino-ethyl)-methyl-amino]-pyridine-2-carboxylic acid {3-[(pyridine-2-carbonyl)-amino]-adamantan-1-yl}-amide]",63 to 99
11,"Cc1cccc(C(=O)NC23CC4CC(C2)CC(NC(=O)c2cccc(N5CCC[C@H]5C(N)=O)n2)(C4)C3)n1 [Example 239, 6-((S)-2-Carbamoyl-pyrrolidin-1-yl)-pyridine-2-carboxylic acid {3-[(6-methyl-pyridine-2-carbonyl)-amino]-adamantan-1-yl}-amide]",63 to 99
12,"O=C(NC12CC3CC(C1)CC(NC(=O)c1cccc(-n4ccnc4)n1)(C3)C2)c1cccc(F)c1 [Example 255, 6-Imidazol-1-yl-pyridine-2-carboxylic acid [3-(3-fluoro-benzoylamino)-adamantan-1-yl]-amide]",63 to 99
13,"Cc1cc(C(=O)NC23CC4CC(C2)CC(NC(=O)c2cncc(C)n2)(C4)C3)ccn1 [Example 156, 6-Methyl-pyrazine-2-carboxylic acid {3-[(2-methyl-pyridine-4-carbonyl)-amino]-adamantan-1-yl}-amide]",70 to 99
14,"Cc1cccc2nc(C(=O)NC34CC5CC(CC(NC(=O)c6ccccn6)(C5)C3)C4)cn12 [Example 92, 5-Methyl-imidazo[1,2-a]pyridine-2-carboxylic acid {3-[(pyridine-2-carbonyl)-amino]-adamantan-1-yl}-amide]",63 to 99
15,"Cc1cccc(C(=O)NC23CC4CC(C2)CC(NC(=O)c2coc(C)n2)(C4)C3)n1 [Example 29, 6-Methyl-pyridine-2-carboxylic acid {3-[(2-methyl-oxazole-4-carbonyl)-amino]-adamantan-1-yl}-amide]",63 to 99
16,"Cc1cccc(C(=O)NC23CC4CC(C2)CC(NC(=O)c2cccc(N(C)CCCN(C)C)n2)(C4)C3)n1 [Example 233, 6-[(3-Dimethylamino-propyl)-methyl-amino]-pyridine-2-carboxylic acid {3-[(6-methyl-pyridine-2-carbonyl)-amino]-adamantan-1-yl}-amide]",63 to 99
17,"Cc1cccc(C(=O)NC23CC4CC(C2)CC(NC(=O)c2cccc(N5CCC(O)C5)n2)(C4)C3)n1 (stereo not shown) [Example 205, 6-(3-Hydroxy-pyrrolidin-1-yl)-pyridine-2-carboxylic acid{3-[(6-methyl-pyridine-2-carbonyl)-amino]-adamantan-1-yl}-amide]",63 to 99
18,"Cc1cccc(C(=O)NC23CC4CC(C2)CC(NC(=O)c2ccc5cccnc5n2)(C4)C3)n1 [Example 27, [1,8]Naphthyridine-2-carboxylic acid {3-[(6-methyl-pyridine-2-carbonyl)-amino]-adamantan-1-yl}-amide]",63 to 99
19,"O=C(NC12CC3CC(C1)CC(NC(=O)c1ccc4ccccc4n1)(C3)C2)c1ccc2ccccc2n1 [Example 12, N,N′-(1,3-adamantylene)bis(quinoline-2-carboxamide)]",63 to 99
20,"Cc1cccc(C(=O)NC23CC4CC(C2)CC(NC(=O)c2csc(C)n2)(C4)C3)n1 [Example 136, 6-Methyl-pyridine-2-carboxylic acid {3-[(2-methyl-thiazole-4-carbonyl)-amino]-adamantan-1-yl}-amide]",70 to 99
21,"CN(C)CCCN(C)c1cccc(C(=O)NC23CC4CC(CC(NC(=O)c5cccc(F)c5)(C4)C2)C3)n1 [Example 243, 6-[(3-Dimethylamino-propyl)-methyl-amino]-pyridine-2-carboxylic acid [3-(3-fluoro-benzoylamino)-adamantan-1-yl]-amide]",63 to 99
22,"O=C(NC12CC3CC(C1)CC(NC(=O)c1cccc(N4CCC[C@H]4CO)n1)(C3)C2)c1cccc(F)c1 [Example 249, 6-((S)-2-Hydroxymethyl-pyrrolidin-1-yl)-pyridine-2-carboxylic acid [3-(3-fluoro-benzoylamino)-adamantan-1-yl]-amide]",63 to 99
23,"O=C(NC12CC3CC(C1)CC(NC(=O)C1CCCCC1)(C3)C2)c1ccccn1 [Example 84, Pyridine-2-carboxylic acid [3-(cyclohexanecarbonyl-amino)-adamantan-1-yl]-amide]",63 to 99
24,"Cc1cccc(C(=O)NC23CC4CC(CC(NC(=O)c5cc(Br)ccn5)(C4)C2)C3)n1 [Example 138, 6-Methyl-pyridine-2-carboxylic acid {3-[(4-bromo-pyridine-2-carbonyl)-amino]-adamantan-1-yl}-amide]",70 to 99
25,"Cc1nccc(C(=O)NC23CC4CC(C2)CC(NC(=O)c2nccc(C(F)(F)F)n2)(C4)C3)n1 [Example 192, 4-Trifluoromethyl-pyrimidine-2-carboxylic acid {3-[(2-methyl-pyrimidine-4-carbonyl)-amino]-adamantan-1-yl}-amide]",63 to 99
